# Test results published in ChEMBL document CHEMBL5233221, “Celastrol: Progresses in structure-modifications, structure-activity relationships, pharmacology and toxicology” (Eur J Med Chem, 2020).
# pIC50, pKi: −log10 of the molar value.
# Key:
# Bel-7402 = assay: Antiproliferative activity against human Bel-7402 cells assessed as cell growth inhibition; type: functional, cell-based
# MKN-28 = assay: Antiproliferative activity against human MKN-28 cells assessed as cell growth inhibition; type: functional, cell-based
# Cytochrome P450 1A2 [1] = target: T1, Cytochrome P450 1A2 (Rattus norvegicus, UniProt P04799); assay: Inhibition of rat CYP1A2
# T1 sequence (P04799 whole entry): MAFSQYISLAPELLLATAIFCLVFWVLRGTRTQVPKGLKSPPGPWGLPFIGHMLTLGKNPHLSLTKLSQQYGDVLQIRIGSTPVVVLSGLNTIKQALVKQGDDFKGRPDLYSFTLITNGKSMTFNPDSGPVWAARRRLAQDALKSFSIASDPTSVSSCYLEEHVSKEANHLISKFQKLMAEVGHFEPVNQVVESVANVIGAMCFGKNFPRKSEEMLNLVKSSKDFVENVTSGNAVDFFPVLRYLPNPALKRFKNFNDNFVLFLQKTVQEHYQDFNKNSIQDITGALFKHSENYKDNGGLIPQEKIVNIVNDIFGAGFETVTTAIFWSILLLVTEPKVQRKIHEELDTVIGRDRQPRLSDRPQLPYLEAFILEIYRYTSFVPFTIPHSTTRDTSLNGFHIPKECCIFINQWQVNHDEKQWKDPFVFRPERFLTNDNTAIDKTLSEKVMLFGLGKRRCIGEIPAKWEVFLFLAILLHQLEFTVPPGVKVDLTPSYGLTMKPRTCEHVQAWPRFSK
# HCC827 = assay: Antiproliferative activity against human HCC827 cells assessed as cell growth inhibition; type: functional, cell-based
# KBM5 [2] = assay: Antiproliferative activity against human KBM5 cells expressing Bcr-Abl harboring T315I mutant assessed as cell growth inhibition; type: functional, cell-based
# PC-3 = assay: Antiproliferative activity against human PC-3 cells assessed as cell growth inhibition; type: functional, cell-based
# SAOS-2 = assay: Antiproliferative activity against human SAOS-2 cells assessed as cell growth inhibition; type: functional, cell-based
# NCI-H929 = assay: Antiproliferative activity against human NCI-H929 cells assessed as cell growth inhibition; type: functional, cell-based
# C3A = assay: Antiproliferative activity against human C3A cells assessed as cell growth inhibition; type: functional, cell-based
# [3] = Toxicity in wild-type Zebrafish embryos measured after 48 hrs; set-up: species or system Danio rerio
# NCI-H1975 [4] = assay: Antiproliferative activity against human NCI-H1975 cells assessed as cell growth inhibition; type: functional, cell-based
# HeLa = assay: Antiproliferative activity against human HeLa cells assessed as cell growth inhibition; type: functional, cell-based
# RCC4 = assay: Antiproliferative activity against human RCC4 cells assessed as cell growth inhibition; type: functional, cell-based
# LNCaP = assay: Antiproliferative activity against human LNCaP cells assessed as cell growth inhibition; type: functional, cell-based
# RPMI-8226 [5] = assay: Antiproliferative activity against human RPMI-8226 cells assessed as cell growth inhibition; type: functional, cell-based
# SK-MEL-28 = assay: Antiproliferative activity against human SK-MEL-28 cells assessed as cell growth inhibition; type: functional, cell-based
# SCC-4 = assay: Antiproliferative activity against human SCC-4 cells assessed as cell growth inhibition; type: functional, cell-based
# NCI-H460 = assay: Antiproliferative activity against human NCI-H460 cells assessed as cell growth inhibition; type: functional, cell-based
# A2780 = assay: Antiproliferative activity against human A2780 cells assessed as cell growth inhibition; type: functional, cell-based
# MG-63 = assay: Antiproliferative activity against human MG-63 cells assessed as cell growth inhibition; type: functional, cell-based
# A549 = assay: Antiproliferative activity against human A549 cells assessed as cell growth inhibition; type: functional, cell-based
# [6] = Antiproliferative activity against human Renal cancer tumor cell line assessed as cell growth inhibition; type: functional, cell-based
# [7] = Antiproliferative activity against human U373 MG cells assessed as cell growth inhibition; type: functional, cell-based, U-373MG ATCC
# U-266 = assay: Antiproliferative activity against human U-266 cells assessed as cell growth inhibition; type: functional, cell-based
# [8] = test system: Colletotrichum gloeosporioides; assay: Antifungal activity against Glomerella cingulata assessed as inhibition of fungal growth at 10 ug/ml relative to control; type: functional; set-up: scale not given: the % may be the effect or the level left; details: dose 10 µg/ml
# [9] = Antiproliferative activity against human MM1.R cells assessed as cell growth inhibition; type: functional, cell-based; details: MM.1R
# NCI-H1299 = assay: Antiproliferative activity against human NCI-H1299 cells assessed as cell growth inhibition; type: functional, cell-based
# Rhizoctonia solani = assay: Antifungal activity against Rhizoctonia solani assessed as inhibition of fungal growth at 10 ug/ml relative to control; type: functional; set-up: scale not given: the % may be the effect or the level left; details: dose 10 µg/ml
# Erysiphales [10] = assay: Antifungal activity against powdery mildew assessed as preventive effects at 100 ug/ml relative to control; type: functional; details: dose 100 µg/ml
# [11] = target: UDP-glucuronosyltransferase 2B7 (Homo sapiens, UniProt P16662); assay: Binding affinity to UGT2B7 (unknown origin) assessed as inhibition constant
# UDP-glucuronosyltransferase 2B7, sequence (P16662 whole entry): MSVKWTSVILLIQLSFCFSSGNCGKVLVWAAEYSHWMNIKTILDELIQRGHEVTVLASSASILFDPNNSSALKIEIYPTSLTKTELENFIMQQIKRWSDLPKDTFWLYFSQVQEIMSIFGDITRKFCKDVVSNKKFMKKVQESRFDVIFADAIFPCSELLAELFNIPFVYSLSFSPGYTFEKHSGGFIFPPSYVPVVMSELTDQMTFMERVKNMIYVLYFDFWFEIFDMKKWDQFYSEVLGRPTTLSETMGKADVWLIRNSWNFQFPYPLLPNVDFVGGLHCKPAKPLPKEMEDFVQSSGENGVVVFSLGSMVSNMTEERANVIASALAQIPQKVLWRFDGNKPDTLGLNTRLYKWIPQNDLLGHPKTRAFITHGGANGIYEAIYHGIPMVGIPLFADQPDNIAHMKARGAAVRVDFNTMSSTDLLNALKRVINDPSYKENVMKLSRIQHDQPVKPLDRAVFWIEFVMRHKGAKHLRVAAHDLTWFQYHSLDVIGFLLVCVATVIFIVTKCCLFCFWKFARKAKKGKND
# U-937 = assay: Antiproliferative activity against human U-937 cells assessed as cell growth inhibition; type: functional, cell-based
# LP-1 = assay: Antiproliferative activity against human LP-1 cells assessed as cell growth inhibition; type: functional, cell-based
# [12] = Antiproliferative activity against human SPCA1 cells assessed as cell growth inhibition; type: functional, cell-based
# [13] = Antiproliferative activity against human YCC-2 cells assessed as cell growth inhibition; type: functional, cell-based
# NSCLC = assay: Antiproliferative activity against human NSCLC cells assessed as cell growth inhibition; type: functional, cell-based
# U2OS = assay: Antiproliferative activity against human U2OS cells assessed as cell growth inhibition; type: functional, cell-based
# SCC-38 = assay: Antiproliferative activity against human SCC-38 cells assessed as cell growth inhibition; type: functional, cell-based
# Cytochrome P450 3A2 [14] = target: T2, Cytochrome P450 3A2 (Rattus norvegicus, UniProt P05183); assay: Inhibition of rat CYP3A2
# T2 sequence (P05183 whole entry): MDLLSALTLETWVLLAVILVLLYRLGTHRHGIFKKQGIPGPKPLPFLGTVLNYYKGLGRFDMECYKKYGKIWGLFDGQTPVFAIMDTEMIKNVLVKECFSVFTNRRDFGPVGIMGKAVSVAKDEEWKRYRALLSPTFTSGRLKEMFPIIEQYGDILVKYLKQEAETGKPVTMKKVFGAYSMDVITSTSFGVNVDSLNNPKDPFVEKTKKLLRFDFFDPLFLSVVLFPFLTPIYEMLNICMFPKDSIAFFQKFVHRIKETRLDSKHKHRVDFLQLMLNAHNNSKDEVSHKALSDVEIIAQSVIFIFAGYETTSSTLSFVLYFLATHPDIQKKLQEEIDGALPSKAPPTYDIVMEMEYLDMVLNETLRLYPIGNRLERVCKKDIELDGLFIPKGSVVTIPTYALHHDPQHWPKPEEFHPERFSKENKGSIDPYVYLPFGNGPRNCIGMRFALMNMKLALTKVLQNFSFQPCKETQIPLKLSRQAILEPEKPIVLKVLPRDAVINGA
# Cytochrome P450 2C11 [15] = target: T3, Cytochrome P450 2C11 (Rattus norvegicus, UniProt P08683); assay: Inhibition of rat Cyp2c11; type: ADME
# T3 sequence (P08683 whole entry): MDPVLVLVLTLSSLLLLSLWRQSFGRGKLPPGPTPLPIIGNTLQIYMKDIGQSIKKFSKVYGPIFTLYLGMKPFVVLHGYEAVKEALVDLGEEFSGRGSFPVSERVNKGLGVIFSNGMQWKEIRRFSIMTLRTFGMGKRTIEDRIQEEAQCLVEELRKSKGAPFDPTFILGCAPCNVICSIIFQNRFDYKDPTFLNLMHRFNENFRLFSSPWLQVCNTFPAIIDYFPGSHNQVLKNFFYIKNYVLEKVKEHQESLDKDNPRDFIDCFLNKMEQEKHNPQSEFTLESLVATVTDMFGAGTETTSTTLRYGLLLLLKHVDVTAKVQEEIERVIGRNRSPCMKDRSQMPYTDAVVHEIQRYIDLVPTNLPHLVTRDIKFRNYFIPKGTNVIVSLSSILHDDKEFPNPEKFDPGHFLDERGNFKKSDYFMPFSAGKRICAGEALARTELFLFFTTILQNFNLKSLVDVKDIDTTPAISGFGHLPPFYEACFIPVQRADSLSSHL
# Huh-7 = assay: Antiproliferative activity against human Huh-7 cells assessed as cell growth inhibition; type: functional, cell-based
# HOS = assay: Antiproliferative activity against human HOS cells assessed as cell growth inhibition; type: functional, cell-based
# SK-OV-3 = assay: Antiproliferative activity against human SK-OV-3 cells assessed as cell growth inhibition; type: functional, cell-based
# [16] = Toxicity in wild-type Zebrafish embryos measured after 72 hrs; set-up: species or system Danio rerio
# Cytochrome P450 1A2 [17] = target: T1, Cytochrome P450 1A2; assay: Binding affinity to rat CYP1A2
# SW13 = assay: Antiproliferative activity against human SW13 cells assessed as cell growth inhibition; type: functional, cell-based
# [18] = Antiproliferative activity against human KU-7 cells assessed as cell growth inhibition; type: functional, cell-based; details: KU7
# [19] = Antiproliferative activity against human 95-D cells assessed as cell growth inhibition; type: functional, cell-based
# HepG2 = assay: Antiproliferative activity against human HepG2 cells assessed as cell growth inhibition; type: functional, cell-based
# U-251 = assay: Antiproliferative activity against human U-251MG cells assessed as cell growth inhibition; type: functional, cell-based
# MCF7 = assay: Antiproliferative activity against human MCF7 cells assessed as cell growth inhibition; type: functional, cell-based
# [20] = Antiproliferative activity against human 253J-BV cells assessed as cell growth inhibition; type: functional, cell-based
# [21] = Antiproliferative activity against dog CL-1 cells assessed as cell growth inhibition; type: functional, cell-based; details: Canis lupus familiaris
# K562 = assay: Antiproliferative activity against human K562 cells assessed as cell growth inhibition; type: functional, cell-based
# Mus musculus = assay: Antiinflammatory activity in po dosed asthmatic mouse model; type: functional
# KBM5 [22] = assay: Antiproliferative activity against human KBM5 cells assessed as cell growth inhibition; type: functional, cell-based
# MKN-45 = assay: Antiproliferative activity against human MKN-45 cells assessed as cell growth inhibition; type: functional, cell-based
# MDA-MB-231 = assay: Antiproliferative activity against human MDA-MB-231 cells assessed as cell growth inhibition; type: functional, cell-based
# DU-145 = assay: Antiproliferative activity against human DU-145 cells assessed as cell growth inhibition; type: functional, cell-based
# NCI-H2228 = assay: Antiproliferative activity against human NCI-H2228 cells assessed as cell growth inhibition; type: functional, cell-based
# [23] = Antiproliferative activity against human KATO III stomach cancer cell line assessed as cell growth inhibition; type: functional, cell-based
# Cytochrome P450 2C11 [24] = target: T3, Cytochrome P450 2C11; assay: Binding affinity to rat Cyp2c11; type: ADME
# Cytochrome P450 3A2 [25] = target: T2, Cytochrome P450 3A2; assay: Binding affinity to rat CYP3A2
# RPMI-8226 [26] = assay: Antiproliferative activity against doxorubicin resistant human RPMI-8226 cells assessed as cell growth inhibition; type: functional, cell-based
# RPMI-8226 [27] = assay: Antiproliferative activity against bortezomib resistant human RPMI-8226 cells assessed as cell growth inhibition; type: functional, cell-based
# Kasumi 1 = assay: Antiproliferative activity against human Kasumi 1 cells assessed as cell growth inhibition; type: functional, cell-based
# [28] = Antiproliferative activity against human SKNO-1 cells assessed as cell growth inhibition; type: functional, cell-based
# [29] = Antiproliferative activity against human GLC-82 cells assessed as cell growth inhibition; type: functional, cell-based; details: GLC82
# [30] = Antiproliferative activity against human Nasopharyngeal carcinoma cell line assessed as cell growth inhibition; type: functional, cell-based
# [31] = target: UDP-glucuronosyltransferase 1A6 (Homo sapiens, UniProt P19224); assay: Binding affinity to UGT1A6 (unknown origin) assessed as inhibition constant
# UDP-glucuronosyltransferase 1A6, sequence (P19224 whole entry): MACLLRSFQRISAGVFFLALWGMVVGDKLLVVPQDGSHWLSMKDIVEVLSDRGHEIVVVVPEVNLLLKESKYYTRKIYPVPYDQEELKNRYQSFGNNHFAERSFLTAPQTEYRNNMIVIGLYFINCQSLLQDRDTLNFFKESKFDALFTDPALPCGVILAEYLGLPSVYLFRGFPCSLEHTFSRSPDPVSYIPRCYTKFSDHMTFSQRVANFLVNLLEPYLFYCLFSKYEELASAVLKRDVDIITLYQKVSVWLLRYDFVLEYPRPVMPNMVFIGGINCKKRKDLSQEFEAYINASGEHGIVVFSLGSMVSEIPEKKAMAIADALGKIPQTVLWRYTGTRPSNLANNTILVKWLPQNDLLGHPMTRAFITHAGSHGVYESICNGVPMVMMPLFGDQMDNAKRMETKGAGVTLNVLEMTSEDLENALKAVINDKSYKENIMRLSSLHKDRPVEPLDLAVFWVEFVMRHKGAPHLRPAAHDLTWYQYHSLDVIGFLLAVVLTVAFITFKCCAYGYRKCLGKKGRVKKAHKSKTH
# AGS = assay: Antiproliferative activity against human AGS cells assessed as cell growth inhibition; type: functional, cell-based
# NCI-H1650 = assay: Antiproliferative activity against human NCI-H1650 cells assessed as cell growth inhibition; type: functional, cell-based
# UMSCC1 = assay: Antiproliferative activity against human UMSCC1 cells assessed as cell growth inhibition; type: functional, cell-based
# Staphylococcus aureus = assay: Antibacterial activity against Staphylococcus aureus assessed as inhibition of bacterial growth; type: functional
# NCI-H1975 [32] = assay: Antiproliferative activity against gefitinib-resistant human NCI-H1975 cells assessed as cell growth inhibition; type: functional, cell-based
# [33] = Toxicity in wild-type Zebrafish embryos assessed as lethal effect; set-up: species or system Danio rerio; details: in vivo
# Erysiphales [34] = assay: Antifungal activity against powdery mildew assessed as curative effects at 100 ug/ml relative to control; type: functional; details: dose 100 µg/ml
# MM1.S = assay: Antiproliferative activity against human MM1.S cells assessed as cell growth inhibition; type: functional, cell-based
compound,measurement,setting,value
COC(=O)[C@]1(C)CC[C@]2(C)CC[C@]3(C)C4=CC(c5c[nH]c6cc(C)ccc56)c5c(cc(OC)c(OC)c5C)[C@]4(C)CC[C@@]3(C)[C@@H]2C1 (stereo partly drawn),pIC50,Bel-7402,7.70
COC(=O)[C@]1(C)CC[C@]2(C)CC[C@]3(C)C4=CC(c5cn(C)c6cc(Cl)ccc56)c5c(cc(OC)c(OC)c5C)[C@]4(C)CC[C@@]3(C)[C@@H]2C1 (stereo partly drawn),pIC50,Bel-7402,8.00
CC1=C(O)C(=O)C=C2C1=CC=C1[C@@]2(C)CC[C@@]2(C)[C@@H]3C[C@](C)(C(=O)O)CC[C@]3(C)CC[C@]12C [CELASTROL],pIC50,MKN-28,5.64
same,pIC50,Cytochrome P450 1A2 [1],4.28
same,pIC50,HCC827,5.89
same,pIC50,KBM5 [2],6.28
same,pIC50,PC-3,5.82
same,pIC50,SAOS-2,5.98
same,pIC50,NCI-H929,6.51
same,pIC50,C3A,5.44
same,EC50 at 48 h,[3],900 nM
same,pIC50,NCI-H1975 [4],5.78
same,pIC50,HeLa,5.72
same,pIC50,RCC4,5.73
same,pIC50,LNCaP,5.75
same,pIC50,RPMI-8226 [5],6.28
same,pIC50,SK-MEL-28,5.76
same,pIC50,SCC-4,5.55
same,pIC50,NCI-H460,5.66
same,pIC50,A2780,5.68
same,pIC50,MG-63,5.71
same,pIC50,A549,5.70
same,pIC50,[6],5.36
same,pIC50,[7],5.70
same,pIC50,U-266,6.33
same,Activity,[8],62.6%
same,pIC50,[9],6.28
same,pIC50,NCI-H1299,5.83
same,Activity,Rhizoctonia solani,62.6%
same,Activity,Erysiphales [10],80.5%
same,pKi,[11],7.35
same,pIC50,U-937,5.70
same,pIC50,LP-1,6.06
same,pIC50,[12],5.74
same,pIC50,[13],6.30
same,pIC50,NSCLC,5.83
same,pIC50,U2OS,5.68
same,pIC50,SCC-38,5.77
same,pIC50,Cytochrome P450 3A2 [14],4.63
same,pIC50,Cytochrome P450 2C11 [15],4.99
same,pIC50,Huh-7,5.33
same,pIC50,HOS,5.59
same,pIC50,SK-OV-3,5.64
same,EC50 at 72 h,[16],700 nM
same,pKi,Cytochrome P450 1A2 [17],4.41
same,pIC50,SW13,7.00
same,pIC50,[18],5.95
same,pIC50,[19],5.74
same,pIC50,HepG2,5.62
same,pIC50,U-251,6.16
same,pIC50,MCF7,5.80
same,pIC50,[20],6.03
same,pIC50,[21],5.81
same,pIC50,K562,6.40
same,LD50,Mus musculus,20.5 mg/kg
same,pIC50,KBM5 [22],6.30
same,pIC50,MKN-45,5.47
same,pIC50,MDA-MB-231,6.17
same,pIC50,DU-145,5.83
same,pIC50,NCI-H2228,5.71
same,pIC50,[23],6.27
same,pKi,Cytochrome P450 2C11 [24],5.15
same,pKi,Cytochrome P450 3A2 [25],4.85
same,pIC50,RPMI-8226 [26],6.28
same,pIC50,RPMI-8226 [27],6.14
same,pIC50,Kasumi 1,5.66
same,pIC50,[28],5.89
same,pIC50,[29],5.97
same,pIC50,[30],6.00
same,pKi,[31],6.31
same,pIC50,AGS,6.60
same,pIC50,NCI-H1650,6.10
same,pIC50,UMSCC1,6.12
same,MIC,Staphylococcus aureus,0.5 µg/mL
same,pIC50,NCI-H1975 [32],6.22
same,LC50,[33],1400 nM
same,Activity,Erysiphales [34],45.4%
same,pIC50,MM1.S,6.20
